In US20250090437A1, “COSMETIC COMPOUNDING AGENT, COSMETIC AND PRODUCTION METHOD THEREOF” (MIYOSHI OIL & FAT CO., LTD., priority 2019, published 2025):

What was measured:
[1] = Sensory evaluation on healthy hair after using organic ammonium salt; design: species or system human; conditions: healthy hair, 80 wt % aqueous solution
Procedure: Here, an 80 wt % aqueous solution(s) of each of the compounds B11, B12, B23, B26 and B27 (content in terms of anhydride in the cases of the compounds B11, B12 and B23) were prepared and used as samples. Next, one minute was spent in evenly applying 10.0 g of each sample to a bundle of the healthy hairs weighing about 10 g, using a brush; the bundle of the healthy hairs was then left for 5 min. After leaving it for 5 min, the bundle of the healthy hairs was rinsed with a hot water of 40° C. for 30 sec, and evaluated was a finger-combing capability at the time of performing washing. The hair bundle that had been rinsed was then dried with a towel and further subjected to air drying for a day, followed by evaluating items such as flexibility, finger-combing capability, texture, elasticity/resilience (feeling by bare hands), volume increase (visual evaluation), cohesiveness, moist feeling, surface smoothness, non-stickiness (feeling by bare hands) and gloss (visual evaluation), from the perspective of superiority or inferiority to a test hair bundle(s) uncoated with the sample.

[2] = Sensory evaluation on damaged hair after using shampoo agent containing organic ammonium salt; design: species or system human; conditions: shampoo agent containing the compound; treated 10 times
Procedure: Next, the mixture was cooled to a temperature of 30° C. or lower, and a purified water of an evaporated amount was then added thereto so that the whole hair treatment composition would be 100% by mass, followed by uniformly mixing them so as to obtain a hair treatment composition(s). The pH level of the hair treatment composition was adjusted to pH 6.0 by adding a citric acid or sodium hydroxide.
The damaged hair was repeatedly treated 10 times in a similar manner as 3-1; evaluated were a cohesiveness of the hair, surface smoothness of the hair and waviness of the hair after performing air drying.

[3] = Sensory evaluation on healthy hair after using conditioner containing organic ammonium salt; design: species or system human; conditions: conditioner containing 3.0% by mass of the compound
Procedure: Here, 4.5% by mass of a stearyl alcohol (KALCOL 8688 by Kao Corporation), 2.0% by mass of a behenyl alcohol (KALCOL 220-80 by Kao Corporation) and 0.5% by mass of a phenoxyethanol (Hisolve EPH by TOHO Chemical Industry Co., Ltd.) were mixed together and heated to 75° C. to obtain a liquid A. Further, 3.0% by mass of a behentrimonium chloride (CATINAL DC-80 by TOHO Chemical Industry Co., Ltd.), 5.0% by mass of dipropylene glycol and 3.0% by mass of each of the compounds B11, B23, B26, B27 and B28 (content in terms of anhydride in the cases of the compounds B11 and B23) were added together, followed by adding a purified water thereto, and then melting them at 80° C., thus obtaining a liquid B. The liquid B was then gradually added to the liquid A, and stirring was performed at 75° C. for 20 min. Next, the mixture was cooled to a temperature of 40° C. or lower, and a purified water of an evaporated amount was then added thereto so that the whole hair treatment composition would be 100% by mass, followed by uniformly mixing them so as to obtain a hair treatment composition(s).
About 5 g of the healthy hair was dipped into and kept immersed in 150 g of a seven-time dilute aqueous solution of each of the abovementioned hair treatment compositions (conditioners) at 40° C. for 30 min. […] After air drying, a combing capability, cohesiveness and non-stickiness of the hair were evaluated.

keratin = experiment: Stabilization effect of hair treatment agent on keratin (IR, 130° C., seven days); conditions: treated keratin after 130° C. for seven days
Procedure: Here, 0.3 g of the keratin that had been treated in 4-1 was placed into a thermostatic device of 130° C. and left to stand still therein for seven days. After seven days, an IR spectrum of the keratin obtained was measured; by measuring an absorption derived from the α-helix secondary structure of amide, a stabilization effect of the hair treatment agent on the structure of keratin was evaluated.
Next, IR measurement was carried out after performing the heating test at 130° C. to obtain peaks derived from each amide and an intensity ratio(s) thereof to a reference peak (reference peak (derived from C—N) 1086 cm^−1, peak 1654 cm^−1 derived from the α-helix secondary structure of amide). The intensity ratio (X) was evaluated as “intensity of reference peak:intensity of peak derived from amide=1:X,” by reading the absorption intensity of the reference peak and the intensity of the peak derived from amide.

[4] = Affinity to hair (contact angle); conditions: 50 wt % aqueous solution; condition B (hair iron, 160° C.)
[5] = Permeability to skin (horny layer tape stripping method); assay type: in vivo; conditions: extraction liquid, an hour after application to the arm, HPLC
Procedure: Skin permeability was evaluated by a horny layer tape stripping method. […] A sample was applied to the arm and then left thereon for an hour before performing tape stripping on the horn by eight layers. An adhered substance on this tape was then extracted with an ion-exchange water over the course of 10 min, followed by filtrating an extraction liquid thus obtained with a 0.2 μm filter, and then quantifying, via HPLC, the amount of each of the compounds C20, C64 and C97 in each extraction liquid filtrated.

[6] = Surface resistance measurement of organic ammonium salt; conditions: 0.7 g applied to polyurethane artificial leather; liquid state; uncoated greater than 4×10^11Ω
[7] = Solubility of active ingredient (gallic acid) in aqueous solution of the compound; conditions: in 1.8 g compound + 8.2 g ion-exchange water
[8] = Solubility of active ingredient (glutamic acid) in aqueous solution of the compound; conditions: in 1.8 g compound + 8.2 g ion-exchange water

OCC(O)CO [Compound A52, glycerin, reference compound]
After air drying: Cohesiveness of hair [1]: Δ~X
After air drying: Elasticity/Resilience [1]: Δ~X
After air drying: Finger-combing capability [1]: Δ~X
After air drying: Flexibility [1]: Δ~X
After air drying: Gloss of hair [1]: Δ~X
After air drying: Moist feeling [1]: Δ~X
After air drying: Non-stickiness of hair surface [1]: Δ~X
After air drying: Smoothness of hair surface [1]: Δ~X
After air drying: Texture [1]: Δ~X
After air drying: Volume increase [1]: Δ~X
When washing: Finger-combing capability ([1]; versus uncoated hair bundle): ◯
Sensory evaluation of damaged hair after shampoo agent (cohesiveness, surface smoothness, waviness) [2]: inferior surface smoothness
Combing capability, cohesiveness and non-stickiness of healthy hair after conditioner [3]: slightly inferior
α-helix secondary structure of keratin after heating (keratin): maintained
Contact angle of water droplet on treated hair [4]: not indifferent from that of the untreated product
Compound concentration ([5]; Tape stripping layer 1): 0.030 ml/L
Compound concentration ([5]; Tape stripping layer 2): 0.014 ml/L
Compound concentration ([5]; Tape stripping layer 3): 0.009 ml/L
Compound concentration ([5]; Tape stripping layer 4): 0.009 ml/L
Compound concentration ([5]; Tape stripping layer 5): 0.008 ml/L
Compound concentration ([5]; Tape stripping layer 6): 0.006 ml/L
Compound concentration ([5]; Tape stripping layer 7): 0.006 ml/L
Compound concentration ([5]; Tape stripping layer 8): 0.006 ml/L
Surface resistance value [6]: 5×10^8 Ω
Amount of dissolution Gallic acid [7]: 0.08 g
Amount of dissolution Glutamic acid [8]: <0.08 g
